From ChEMBL document CHEMBL1156159, “Synthesis, cytotoxic activity and structure-activity relationships of hedychenone analogues” (Bioorg Med Chem Lett, 2010)
≈ marks a conversion by molar mass, not a printed value.

Legend:
MCF7 = experiment: Cytotoxicity against human MCF7 cells after 24 hrs; type: functional, cell-based
HL-60 = experiment: Cytotoxicity against human HL60 cells after 24 hrs; type: functional, cell-based
CHO = experiment: Cytotoxicity against CHO cells after 24 hrs; type: cell-based, Cricetulus griseus
A-375 = experiment: Cytotoxicity against human A375 cells after 24 hrs; type: functional, cell-based
A549 = experiment: Cytotoxicity against human A549 cells after 24 hrs; type: functional, cell-based
[1] = Homo sapiens, MCF7, 24 h, read-out: IC50
[2] = Homo sapiens, HL-60, 24 h, read-out: IC50
[3] = Cricetulus griseus, CHO, 24 h, read-out: IC50
[4] = Homo sapiens, A-375, 24 h, read-out: IC50
[5] = Homo sapiens, A549, 24 h, read-out: IC50

Row | Compound | IC50 (MCF7; mcf7) | IC50 (HL-60; hl-60) | IC50 (CHO; cho) | IC50 (A-375; a-375) | IC50 (A549; a549) | IC50 (MCF7; [1]) | IC50 (HL-60; [2]) | IC50 (CHO; [3]) | IC50 (A-375; [4]) | IC50 (A549; [5])
1 | COC1CCC2C3C=C(/C=C/[C@H]4C(C)=CC(=O)[C@H]5C(C)(C)CCC[C@]45C)C(O3)C2O1 (stereo in doubt; 3i) | 29.3 µg/mL (≈ 71 µM) | 28.41 µg/mL (≈ 68.9 µM) | 13.91 µg/mL (≈ 33.7 µM) | 31.12 µg/mL (≈ 75.4 µM) | 47.71 µg/mL (≈ 116 µM) |  |  |  |  | 
2 | CC1=CC(=O)[C@H]2C(C)(C)CCC[C@]2(C)[C@H]1/C=C/C1=CC2OC1C1C(=O)c3ccccc3C(=O)C21 (stereo in doubt; 3k) |  |  |  |  |  | 15 µg/mL (≈ 32.8 µM) | 13.7 µg/mL (≈ 30 µM) | 7.94 µg/mL (≈ 17.4 µM) | 18.7 µg/mL (≈ 41 µM) | 
3 | CC1(C)CCC[C@]2(C)[C@@H](/C=C/c3ccoc3)C(CO)=CC(=O)[C@@H]12 [YUNNACORONARIN D] |  |  |  |  |  | 34.3 µg/mL (≈ 109 µM) | 26.2 µg/mL (≈ 83.3 µM) | 39 µg/mL (≈ 124 µM) | 40 µg/mL (≈ 127 µM) | 50.1 µg/mL (≈ 159 µM)
4 | COC1CCC2C3C=C(/C=C/[C@H]4C(C)=CC(=O)[C@H]5C(C)(C)CCC[C@]45C)C(O3)C2O1 (stereo in doubt; 3g) |  |  |  |  |  | 28.1 µg/mL (≈ 68.1 µM) | 27.7 µg/mL (≈ 67.1 µM) | 13.1 µg/mL (≈ 31.7 µM) | 30.2 µg/mL (≈ 73.2 µM) | 43.2 µg/mL (≈ 105 µM)
5 | CC1=CC(=O)[C@H]2C(C)(C)CCC[C@]2(C)[C@H]1/C=C/C1=CC2OC1C1CNCC21 (stereo in doubt; 3p) | 31.98 µg/mL (≈ 87 µM) | 43.18 µg/mL (≈ 117 µM) |  |  |  |  |  |  |  | 
6 | CC1=CC(=O)[C@H]2C(C)(C)CCC[C@]2(C)[C@H]1[C@@H]1O[C@@H]1c1ccoc1 |  |  |  |  |  | 20.1 µg/mL (≈ 63.9 µM) | 19.4 µg/mL (≈ 61.8 µM) | 9.61 µg/mL (≈ 30.6 µM) | 26.1 µg/mL (≈ 83.1 µM) | 31.1 µg/mL (≈ 99.1 µM)
7 | CC1=CC(=O)[C@H]2C(C)(C)CCC[C@]2(C)[C@H]1/C=C/C1=CC2OC1C1CCOC21 (stereo partly drawn) |  |  |  |  |  | 33.9 µg/mL (≈ 91.9 µM) | 38 µg/mL (≈ 103 µM) |  | 43.1 µg/mL (≈ 117 µM) | 
8 | CC1(C)CCC[C@@]2(C)[C@H]1C(=O)CC(C)(C1(C)CC(=O)[C@H]3C(C)(C)CCC[C@]3(C)C1/C=C/c1ccoc1)[C@@H]2/C=C/c1ccoc1 (stereo partly drawn) |  |  |  |  |  | 11.2 µg/mL (≈ 18.7 µM) | 13.9 µg/mL (≈ 23.1 µM) | 6.91 µg/mL (≈ 11.5 µM) | 16.8 µg/mL (≈ 28.1 µM) | 23 µg/mL (≈ 38.4 µM)
9 | COC1CCC2C3OC(C=C3/C=C/[C@H]3C(C)=CC(=O)[C@H]4C(C)(C)CCC[C@]34C)C2O1 (stereo in doubt; 3h) |  |  |  |  |  | 28 µg/mL (≈ 67.8 µM) | 27.1 µg/mL (≈ 65.8 µM) | 14.1 µg/mL (≈ 34.3 µM) | 32.1 µg/mL (≈ 77.9 µM) | 43 µg/mL (≈ 104 µM)
10 | CC1=CC(=O)[C@H]2C(C)(C)CCC[C@]2(C)[C@H]1C=O |  |  |  |  |  | 38.1 µg/mL (≈ 163 µM) | 39.7 µg/mL (≈ 169 µM) | 34.9 µg/mL (≈ 149 µM) | 35.1 µg/mL (≈ 150 µM) | 
11 | CC1=CC(=O)[C@H]2C(C)(C)CCC[C@]2(C)[C@H]1/C=C/C1=C[C@H]2O[C@H]1[C@H]1C(=O)OC(=O)[C@H]12 (stereo in doubt; 3b) |  |  |  |  |  | 17 µg/mL (≈ 42.9 µM) | 16.9 µg/mL (≈ 42.7 µM) | 9.11 µg/mL (≈ 23 µM) | 20 µg/mL (≈ 50.5 µM) | 36.4 µg/mL (≈ 91.9 µM)
12 | CC1=CC(=O)[C@H]2C(C)(C)CCC[C@]2(C)[C@H]1/C=C/C1=CC2OC1C1OCCC21 (stereo partly drawn) |  |  |  |  |  | 30.1 µg/mL (≈ 81.8 µM) | 38.4 µg/mL (≈ 104 µM) |  |  | 48.4 µg/mL (≈ 131 µM)
13 | CC1=CC(=O)[C@H]2C(C)(C)CCC[C@]2(C)[C@H]1CCc1ccoc1 |  |  |  |  |  | > 100 µg/mL | 87 µg/mL (≈ 290 µM) |  | 60 µg/mL (≈ 200 µM) | 
14 | CC1=CC(=O)[C@H]2C(C)(C)CCC[C@]2(C)[C@H]1/C=C/c1ccoc1 [HEDYCHENONE] |  |  |  |  |  | 19.4 µg/mL (≈ 65 µM) | 17.7 µg/mL (≈ 59.2 µM) | 8.2 µg/mL (≈ 27.5 µM) | 21.1 µg/mL (≈ 70.8 µM) | 33.1 µg/mL (≈ 111 µM)
15 | CC1=CC(=O)[C@H]2C(C)(C)CCC[C@]2(C)[C@H]1/C=C/C1=CC2OC1C1C(=O)c3ccccc3C(=O)C21 (stereo in doubt; 3l) | 14.72 µg/mL (≈ 32.2 µM) | 13.88 µg/mL (≈ 30.4 µM) | 7.91 µg/mL (≈ 17.3 µM) | 18.64 µg/mL (≈ 40.8 µM) |  |  |  |  |  | 34.5 µg/mL (≈ 75.5 µM)
16 | CC1=CC(=O)[C@H]2C(C)(C)CCC[C@]2(C)[C@H]1/C=C/C1=C[C@H]2O[C@H]1[C@H]1C(=O)OC(=O)[C@H]12 (stereo in doubt; 3c) | 23.18 µg/mL (≈ 58.5 µM) | 21.73 µg/mL (≈ 54.8 µM) | 11.08 µg/mL (≈ 27.9 µM) | 27.84 µg/mL (≈ 70.2 µM) |  |  |  |  |  | 
17 | CC1CC(=O)[C@H]2C(C)(C)CCC[C@]2(C)[C@H]1CCc1ccoc1 (stereo partly drawn) |  |  |  |  |  | > 100 µg/mL | > 100 µg/mL |  | > 100 µg/mL | 
18 | CC1=CC(=O)[C@H]2C(C)(C)CCC[C@]2(C)[C@H]1/C=C/C1=C[C@@H]2O[C@@H]1[C@H]1C(=O)OC(=O)[C@H]12 |  |  |  |  |  | 24.1 µg/mL (≈ 60.8 µM) | 28.1 µg/mL (≈ 70.9 µM) | 12.1 µg/mL (≈ 30.6 µM) | 30.4 µg/mL (≈ 76.7 µM) | 
19 | CC1=CC(=O)[C@H]2C(C)(C)CCC[C@]2(C)[C@H]1/C=C/C1=C[C@H]2O[C@H]1[C@H]1C(=O)C=CC(=O)[C@H]12 |  |  |  |  |  | 15.7 µg/mL (≈ 38.7 µM) | 14.1 µg/mL (≈ 34.6 µM) | 8.19 µg/mL (≈ 20.1 µM) | 19 µg/mL (≈ 46.8 µM) | 35.9 µg/mL (≈ 88.3 µM)
20 | COC1CCC2C3OC(C=C3/C=C/[C@H]3C(C)=CC(=O)[C@H]4C(C)(C)CCC[C@]34C)C2O1 (stereo in doubt; 3j) |  |  | 14.03 µg/mL (≈ 34 µM) |  |  |  |  |  |  | 
21 | CC1=CC(=O)[C@H]2C(C)(C)CCC[C@]2(C)[C@H]1/C=C/C1=CC2OC1C1CNCC21 (stereo in doubt; 3o) |  |  |  |  |  | 36.7 µg/mL (≈ 99.9 µM) | 39.9 µg/mL (≈ 108 µM) | 19.2 µg/mL (≈ 52.2 µM) |  | 
22 | CC1=CC(=O)[C@H]2C(C)(C)CCC[C@]2(C)[C@H]1/C=C/C1=C[C@H]2O[C@H]1[C@@H]1C(=O)OC(=O)[C@@H]12 |  |  |  |  |  | 18.6 µg/mL (≈ 46.9 µM) | 17 µg/mL (≈ 42.9 µM) | 10.4 µg/mL (≈ 26.3 µM) | 20.4 µg/mL (≈ 51.4 µM) | 39.9 µg/mL (≈ 101 µM)
23 | CC1=CC(=O)[C@H]2C(C)(C)CCC[C@]2(C)[C@H]1/C=C/C1=C[C@H]2O[C@H]1[C@@H]1C(=O)C=CC(=O)[C@@H]12 |  |  |  |  |  | 15.4 µg/mL (≈ 37.9 µM) | 14.7 µg/mL (≈ 36.2 µM) | 8.28 µg/mL (≈ 20.4 µM) | 20.1 µg/mL (≈ 49.5 µM) | 
